This is an account of results in paper PMC9862597, “Anti-Colorectal Cancer Effects of a Novel Camptothecin Derivative PCC0208037 In Vitro and In Vivo” (Pharmaceuticals, 2022).

As a reminder, the IC50 is the concentration at which inhibition is half-maximal. The Cmax is the peak of the concentration-time curve. Broadly, the Tmax is the time at which the peak concentration occurs.

One data set deals with LS180 cells. Briefly: MTT cell viability assay, LS180. The format is cell-based. The note with it: Homo sapiens; LS180, MTT, 72 h, n = 3; read-out: IC50. On the procedure: (§1) Cell viability was assessed using the MTT assay, as previously reported. Briefly, colorectal cancer cells (LS180, HCT116, CT-26, and HT-29 cells) were plated onto 96-well plates at 3000 cells per well and incubated overnight. […] Control cells were treated with DMSO at a final concentration of 0.1%. Cells were cultured with the compounds or medium for 72 h. The cells were then treated with MTT. The medium was then decanted, and DMSO was added and shaken until the color reaction was complete. The […] were read using a Molecular Devices SpectraMax M5 (San Jose, CA, USA) at OD570 nm. The half maximal inhibitory concentration (IC50) was calculated.
(In general: Tetrazolium assays rely on reduction of a dye to a coloured formazan, in cell work by metabolically active cells.)

For another data set, the system named is LS180 xenograft tumor. The data set is described as follows: Subcutaneous LS180 xenograft model. It is filed as in vivo, nude mice. The note with it: PCC0208037 5, 10, 20 mg/kg; CPT-11 10 mg/kg; i.v. once every 3 days. On the procedure: To establish xenograft tumor models, RPMI 1640 and Matrigel were mixed at a 1:1 ratio. Colorectal cancer cells (LS180: 5 × 10^6 cells) were added to 0.1 mL of the mixture, and male nude mice were subcutaneously injected with colorectal cancer cells on the right side. […] Tumor volume and animal weight were measured every 3 days and continued until the end of the experiments. All mice were euthanized by cervical dislocation at the end of the experiment, and the xenograft tumors were removed and weighed.
Figure 8 Anti-tumor effect of PCC0208037 in the LS180 xenograft tumor model. (A) Representative tumors removed after the last treatment in each treatment group. (B) Body weight gain curves of mice bearing an LS180 xenograft tumor. (C) Tumor weights in the different groups of mice after 15 d of treatment.

Another data set relates to HT-29 cells. Briefly: MTT cell viability assay, HT-29. The settings on record: Homo sapiens; HT-29, MTT, 72 h, n = 3. It is filed as cell-based. On the procedure: as §1
Data set [1] in a line: PCC0208037- and CPT-11-induced toxicity in mice. The settings on record: 50 mg/kg/day i.p. for four days.
For another data set, the system named is HCT116 cells. The data set is described as follows: MTT cell viability assay, HCT116. It is filed as cell-based. The settings on record: Homo sapiens, HCT-116; HCT116, MTT, 72 h, n = 3; read-out: IC50. As to the method:
as §1

The subject of another data set is CT-26 cells. Briefly: MTT cell viability assay, CT-26. The settings on record: Mus musculus, CT26; CT-26, MTT, 72 h, n = 3. It is filed as cell-based. On the procedure: as §1
The nature of data set [2]: Pharmacokinetic study, single intravenous dose. The note with it: for AUCinf / AUClast: n = 3. On the procedure: Blood samples were collected at 0.083 h, 0.25 h, 0.5 h, 1 h, 2 h, 4 h, 8 h, and 12 h after administration. Plasma was prepared after centrifugation at 6000× g for 5 min and then stored at −20 °C for further analysis.
The next data set addresses T1, recombinant Topo I (Homo sapiens, UniProt P11387).
T1 construct: purchased TopoGEN, Inc (Buena Vista, CO, USA) TG1018
T1 sequence (P11387 1-765): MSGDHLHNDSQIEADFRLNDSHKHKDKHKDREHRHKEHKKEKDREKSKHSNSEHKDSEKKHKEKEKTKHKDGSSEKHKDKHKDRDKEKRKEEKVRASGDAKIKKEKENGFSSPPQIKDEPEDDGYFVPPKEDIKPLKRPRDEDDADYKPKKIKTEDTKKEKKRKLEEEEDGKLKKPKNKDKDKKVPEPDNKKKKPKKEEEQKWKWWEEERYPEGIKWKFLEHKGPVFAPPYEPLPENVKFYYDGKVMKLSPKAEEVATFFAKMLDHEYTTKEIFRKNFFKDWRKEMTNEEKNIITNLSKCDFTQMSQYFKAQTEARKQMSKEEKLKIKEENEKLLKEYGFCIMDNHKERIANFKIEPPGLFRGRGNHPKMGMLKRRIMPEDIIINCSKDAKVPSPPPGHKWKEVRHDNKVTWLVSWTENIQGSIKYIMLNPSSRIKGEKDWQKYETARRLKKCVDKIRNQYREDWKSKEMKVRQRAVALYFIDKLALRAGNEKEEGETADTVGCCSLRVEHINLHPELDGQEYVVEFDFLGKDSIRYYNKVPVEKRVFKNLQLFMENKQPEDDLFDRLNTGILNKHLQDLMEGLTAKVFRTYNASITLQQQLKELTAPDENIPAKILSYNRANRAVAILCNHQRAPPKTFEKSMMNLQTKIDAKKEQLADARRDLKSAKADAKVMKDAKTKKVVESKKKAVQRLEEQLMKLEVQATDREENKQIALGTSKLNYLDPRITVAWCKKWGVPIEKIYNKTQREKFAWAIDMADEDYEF
Briefly: Topoisomerase I activity assay (DNA relaxation). It is filed as biochemical. The note with it: PCC0208037 100 and 10 nmol/L, SN-38 100 nmol/L, CPT-11 100 nmol/L; 30 min, 37 °C. As to the method:
To determine whether PCC0208037 inhibited Topo I activity, a DNA relaxation assay was conducted. In this assay, supercoiled plasmid DNA was relaxed and nicked by recombinant Topo I, while no nicked DNA would be found when the Topo I enzyme was inhibited.
A Topoisomerase I Drug Screening Kit was used to detect the inhibitory activity of PCC0208037 against Topo I in the cell-free system. 1 IU Topo I and 250 ng of supercoiled plasmid DNA were pre-incubated with DMSO, PCC0208037 (100 nmol/L and 10 nmol/L), SN-38(100 nmol/L), or CPT (100 nmol/L) in a reaction buffer with a final volume of 20 μL and incubated for 30 min at 37 °C; then, the reaction was stopped by the addition of 2 ul of 10% SDS. Then, proteinase K was added to 50 ug/mL, incubated for 15 min at 37 °C, and 0.1 vol. of a loading buffer (0.25% bromophenol blue, 50% glycerol) was added. The supercoiled, relaxed, or nicked DNA was separated by 1% agarose gel in a 1 TAE (Tris-Acetate-EDTA) buffer. Ethidium bromide-stained agarose gel was photographed using Gel Doc XR.
Figure 4 Inhibition of Topo I activity by PCC0208037. […] Plasmid DNA was separated by an agarose gel and stained with ethidium bromide.

The mark [3] stands for this setting: BALB/c, mouse, plasma, iv, 10 mg/kg.
Setting [4] is: CPT-11 in plasma, 10 mg/kg CPT-11 i.v.
Setting [5] is: metabolite SN-38 in plasma after 10 mg/kg CPT-11 i.v.
The mark [6] stands for this setting: metabolite SN-38 in plasma after 10.65 mg/kg PCC0208037 i.v.

In the case of `CCc1c2c(nc3ccc(OC(=O)N4CCC(N5CCCCC5)CC4)cc13)-c1cc3c(c(=O)n1C2)COC(=O)[C@]3(O)CC` [CPT-11, Irinotecan], the IC50 is 3.17 ± 0.58 µM with LS180 cells, > 50 µM in the data set on HT-29 cells, > 50 µM in the data set with HCT116 cells and > 50 µM in the data set with CT-26 cells. For the same molecule, the “effect on body weight of tumor-bearing mice” value in the data set with LS180 xenograft tumor was “significant reduction in body weight”. In data set [1] (colon after 7 days), the “colorectal tissue histomorphological examination (H&E)” value is “extensive colorectal tissue damage”. Besides, the diarrhea score result in data set [1] (later stage of study, p < 0.05 on 7th day) is on record as “higher in the CPT-11-treated mice than in the PCC0208037-treated mice”. Moreover, in data set [1] (seven-day observation), the mortality entry is “No animal died”. Further, the “recovery of body weight and food intake decrease” value in data set [1] (seven-day observation) is “no apparent trend of recovery was observed”. In addition, the peak level in data set [2] (setting [3]) (Cmax) was 481 ± 112 ng/mL. For the same molecule, the time to peak (Tmax) in data set [2] (setting [3]) was found to be 3.24 ± 2.19 h. This molecule yielded an AUCinf in data set [2] (setting [4]) of 393.1 ± 64.4 H * ng/mL. In data set [2] (setting [4]), this molecule came in with an AUClast of 360.5 ±52.9 H * ng/mL.
`CCc1c2c(nc3ccc(O)cc13)-c1cc3c(c(=O)n1C2)COC(=O)[C@]3(O)CC` [SN-38]: the half-maximal inhibitory concentration (IC50) was 0.12 ± 0.01 µM with LS180 cells, 0.35 ± 0.02 µM with HT-29 cells, 3.58 ± 0.21 µM in the data set on HCT116 cells and 0.44 ± 0.66 µM in the data set on CT-26 cells. The AUCinf in data set [2] (setting [5]) is 431.5 ± 62.5 H * ng/mL; in data set [2] (setting [6]), 919.7 ± 176.1 H * ng/mL. Also, the AUClast is on record as 394.6 ± 46.32 H * ng/mL in data set [2] (setting [5]) and 905.5 ± 173.7 H * ng/mL in data set [2] (setting [6]). Also, at recombinant Topo I, the “inhibition of Topo I activity (supercoiled plasmid DNA relaxation)” value is listed as “Topo I activity was inhibited”.
